Read-outs that look alike come from different tables or passages of the source.
Columns and labels:
[1] = cited from earlier work; for Cmax Human: Table 2, human
[2] = Pharmacokinetic parameters (t1/2, Cmax, tmax) identified for the drug panel; conditions: human, in vivo; Table 1, twice the half-life, main determinant for in vitro incubation time
From the text: The elimination half-life or drug half-life tin generally refers to the time required for half the dose of drug administered to be removed from the body. For those drugs to be tested, where a suitable tin can not be taken from the literature, and/or for the purpose of grouping or forming panels of drugs, tin values may be determined as follows.
In accordance with the existing guidelines, the rate (Cmax, tmax) and extent (AUC) of absorption of drug from a test formulation (vs. reference formulation) is evaluated using a single dose study in healthy volunteer subjects, followed by measuring the blood/plasma concentration of the parent drug and any major active metabolites (if present) for a time period of ≥3 t½.
For a determination of the parameters, blood samples are taken at 0, 1, 2, 3, 4, 5, 6, 7, and 8 hours, optionally followed by 10 and 12, 18, 24, 30, 36, and 42 hours after administration. As a general rule, the more frequently samples around the expected time of the maximum concentration are taken, the more accurate the value of t½ (and tmax and Cmax) are. The above determinations can be made in several individuals, and median values can be determined as parameter e.g. for grouping (see below), and testing.
Grouping or pre-selection of drugs can be achieved based on one or more of the following parameters that are known to the person of skill: • i) Cmax—the value defining the maximal concentration used, • ii) t½, —time until 1/2 of the drug is cleared by the patient/cells (half-life), • iii) Duration of action [h] (length of time that particular drug is effective), • iv) Elimination time [h] (time it takes for the concentration of the drug in the plasma or the total amount in the body to be removed), • v) Area under the curve (AUC) [ng*h/ml], • vi) Clearance (CL) [L/h]

[3] = test system: Panc-1 cancer cells and NIH3T3 fibroblasts microtumor; test: Redosing example: pancreatic cancer microtumor model, drug response; type: cell-based; conditions: dosed once for 7 h or re-dosed for another 7 h with 48 h recovery in between; four independent experiments
Experimental: (§1) A pancreatic cancer microtumor model consisting of Panc-1 cancer cells and NIH3T3 fibroblasts were treated with either Gemcitabine or 5-Flurouracil. Both drugs were dosed either once for 7 hours or re-dosed for another 7 h with a 48 h recovery time in between (four independent experiments).
as §1, with “(GEM) and/or 5-Flurouracil (5-FU).” for “or 5-Flurouracil.”

Row | Compound | Cmax Human [1] [ng/mL] | t1/2 ([1]; Table 2) [h] | twice the half-life (2 × t1/2) [2] [h] | tmax ([1]; Table 2) [h] | t1/2 ([1]; Table 1, elimination half-life) [h] | Efficiency on redosing versus single dosing [3]
1 | O=C1[O][Pt]2([NH][C@@H]3CCCC[C@H]3[NH]2)[O]C1=O [Oxaliplatin] | 1200 | 1.86 | – | – | – | –
2 | C#Cc1cccc(Nc2ncnc3cc(OCCOC)c(OCCOC)cc23)c1 [Erlotinib] | 2300 | – | 48.8 | 5.5 | – | –
3 | CC(=O)Nc1cccc(-n2c(=O)n(C3CC3)c(=O)c3c(Nc4ccc(I)cc4F)n(C)c(=O)c(C)c32)c1 [Trametinib] | 22 | 4.35 | 9.6 | – | 4.8 | –
4 | Nc1nc2[nH]cc(CCc3ccc(C(=O)N[C@@H](CCC(=O)O)C(=O)O)cc3)c2c(=O)[nH]1 [Pemetrexed] | 90000 to 150000 | 4.4 | 8.8 | – | 4.4 | –
5 | O=c1[nH]cc(F)c(=O)[nH]1 [Fluorouracil] | – | – | 0.6 | – | 0.3 | did not improve
6 | CC(=O)O[C@@]12CO[C@@H]1C[C@H](O)[C@@]1(C)C(=O)[C@H](O)C3=C(C)[C@@H](OC(=O)[C@H](O)[C@@H](NC(=O)OC(C)(C)C)c4ccccc4)C[C@@](O)([C@@H](OC(=O)c4ccccc4)[C@H]21)C3(C)C [Docetaxel] | 1500 to 2500 | 41 | 82 | – | 41 | –
7 | Nc1ccn([C@@H]2O[C@H](CO)[C@@H](O)C2(F)F)c(=O)n1 [Gemcitabine] | 18500 | 0.23 | 0.46 | – | 0.23 | increased efficiency
8 | O=C(c1cc(Cc2n[nH]c(=O)c3ccccc23)ccc1F)N1CCN(C(=O)C2CC2)CC1 [Olaparib] | 5800 | 11.9 | 23.8 | 1.3 | 11.9 | –
